In brackets after ≈: the same amount, converted by molar mass.
Legend:
[1] = In vitro drug release, dialysis method in PBS pH 7.4; type: physicochemical; conditions: PBS pH 7.4, 37 °C
Method: An in vitro drug release study was conducted employing the dialysis method, with phosphate-buffered saline (PBS, pH = 7.4) as the release medium. For this study, 2 mL aliquots of free Tigecycline (TGC), CSs, or Aβ11/T80@CSs (each containing 1 mg of TGC) were sealed in dialysis bags with a molecular weight cutoff of 3.5 kDa. These bags were then immersed in 30 mL of PBS and gently agitated at 37 °C. At predetermined time intervals, 1.0 mL of PBS was sampled from outside each dialysis bag for HPLC analysis, and an equivalent volume of fresh PBS was replenished to maintain a constant volume in the release medium.

bEnd.3 cells monolayer = experiment: Transmembrane transport assay, in vitro BBB model; type: in vitro ADME; conditions: bEnd.3 Transwell monolayer, apical to basolateral, TGC by HPLC
Method: An in vitro blood–brain barrier (BBB) model using bEnd.3 cells was developed to assess nanoparticle penetration. 2.0 × 10^5 cells were cultured in a Transwell chamber, achieving an intercellular compactness verified at 200 Ω·cm^2 transendothelial electrical resistance. […] Using Hank's Balanced Salt Solution, nanoparticles were added to the apical side and co-incubated. At intervals, 200 μL HBSS was sampled from the basolateral side for TGC concentration analysis via HPLC.

[2] = test system: multidrug-resistant A. baumannii; experiment: Minimum inhibitory concentration, microbroth dilution; type: cell-based; conditions: Acinetobacter baumannii; 1 × 10^5 CFU/mL, 24 h, OD 600 nm
Method: Mid-log phase bacteria, diluted to 1 × 10^5 CFU/mL, were mixed with these compounds (0.125–16 μg/mL) and incubated in 96-well plates for 24 h, with bacterial density measured at 600 nm. In a rat model, MDR A. baumannii was injected intracisternally (20 μL, 1 × 10^8 CFU/mL) into the CSF. […] CSF was collected after 24 h and cultured, with colony counts noted after 24 h at 37 °C.

[3] = Pharmacokinetics after intravenous injection; type: in vivo; conditions: female, Sprague-Dawley, rat, rats, i.v. 12.5 mg/kg TGC, plasma
Method: In the pharmacokinetic study, adult female Sprague–Dawley rats, weighing between 200 and 250 g, were used. Prior to the experiment, the animals were fasted overnight with free access to water. […] Each group received an intravenous administration of TGC at a dose of 12.5 mg/kg via the tail vein. Blood samples were collected at predetermined time points (0.25, 0.5, 1, 2, 4, 6, and 8 h), and then placed into 2 mL Eppendorf tubes. These samples were centrifuged at 10,000 rpm for 10 min at 4 °C to separate the plasma. A portion of the plasma was mixed with methanol in a 1:4 volume ratio and further centrifuged at 13,000 rpm for 10 min at 4 °C. The supernatant was collected for TGC concentration determination using HPLC. Pharmacokinetic parameters were subsequently calculated using the statistical analysis tool DAS2.

Hemolysis assay = experiment: Hemolysis assay; set-up: species or system rats; conditions: rat; 2% erythrocyte suspension, 37 °C, three hours, relative to positive control (water); read-out: hemolysis rate
Method: The hemolytic activity of Aβ11/T80@CSs was assessed using erythrocytes from healthy rats. Blood samples were collected, and red blood cells were isolated through centrifugation, followed by suspension in normal saline to create a 2% erythrocyte solution. Two milliliters of this erythrocyte suspension were mixed with free TGC, CSs, or Aβ11/T80@CSs and incubated at 37 °C for three hours. Post-incubation, the samples were centrifuged, and the absorbance of the supernatant was measured using spectrophotometry at 570 nm. Purified water and normal saline served as positive and negative controls, respectively. The percentage of hemolysis was calculated using the following formula: Hemolysis%=Asample-Anegative/Apositive-Anegativ×100%

bEnd.3 cells = experiment: Cell cytotoxicity, MTT assay; type: cell-based; conditions: 24-h incubation, across a range of TGC concentrations
[4] = Histological analysis (H&E) of heart, liver, spleen, lungs and kidneys; type: in vivo, rats; conditions: compared to normal control group
Source text: To further investigate the biosafety of the various formulations in vivo, blood samples were collected post-administration for biochemical analysis. After euthanizing the rats, their heart, liver, spleen, lung, and kidney tissues were harvested. These tissues underwent hematoxylin and eosin (H&E) staining and were subsequently imaged using a pathology slide scanner.

time to complete release [1]: within three hours
permeability / transport capacity across in vitro BBB model (bEnd.3 cells monolayer): lowest permeability
MIC [2]: 2 µg/mL (≈ 3.41 µM)
Cmax [3]: 3700 ± 620 ng/mL
Tmax [3]: 15 min
clearance [3]: 20 mL/min/kg
half-life [3]: 46.2 ± 14.4 min
AUC(0-t) ([3]; 0-8 h): 8480 ± 2900 ng·h/mL
MRT last ([3]; read-out: MRT(0-t)): 156 ± 9.6 min
histopathology of heart, liver, spleen, lungs and kidneys [4]: no significant pathological alterations
SMILES: CN(C)c1cc(NC(=O)CNC(C)(C)C)c(O)c2c1C[C@H]1C[C@H]3[C@H](N(C)C)C(O)=C(C(N)=O)C(=O)[C@@]3(O)C(O)=C1C2=O [Free-TGC, Tigecycline]
hemolysis at 3 h (Hemolysis assay): < 5%
cell survival rate (bEnd.3 cells): exceeded 80%

Reference: PMC10981309, “Dual-targeting tigecycline nanoparticles for treating intracranial infections caused by multidrug-resistant Acinetobacter baumannii” (Journal of Nanobiotechnology, 2024)
